Laboratory results taken from US20220151227A1, “CARNIVOROUS WASP CONTROL AGENT” (EARTH CORPORATION, priority 2019, published 2022).

Legend:
Experiment in all cases: Control Test 1: aerosol sprayed on one test wasp in metal mesh cage, control time
Format in all cases: in vivo
Details in all cases: 2 g aerosol sprayed 1 second from approx. 30 cm, observed up to 180 seconds
Polistes jokahamae = system: Polistes jokahamae
Text: (§1) Ten grams of ethyl lactate, which is an active ingredient under the present invention, was put in an aerosol can as a liquid concentrate, and then a valve part was installed on the can, after which dimethyl ether was filled through the valve part as a propellant until the weight ratio of the liquid concentrate and the propellant became 1:2, and then a spray button was installed, to obtain 30 g of aerosol test sample in Example 1.
(§2) In Examples 2 to 28 and Comparative Examples 1 to 6, the liquid concentrates shown in Table 1 below were used to obtain 30 g of respective test samples in the same manner as in Example 1.
(§3) After spraying, the time it took for the test wasp to stop behaving normally and begin grooming abnormally and showing agitated behaviors (flapping of wings), and eventually drop to the bottom of the metal gauge, was measured as the control time (in seconds). In Table 1, “IPA” stands for isopropanol, while “%” refers to % by weight.
(§4) It should be noted that “turpentine oil” in Examples 2 and 3 is a plant-based essential oil containing 85% by weight or more of α-pinene which is an active ingredient under the present invention, while Comparative Example 5 contains 1% by weight of isopropyl myristate as a dissolving aid.

Polistes rothneyi = system: Polistes rothneyi
Text: as §1, §2, §3, §4

Vespa mandarinia = system: Vespa mandarinia
Text: as §1, §2, §3, §4

Vespa ducalis = system: Vespa ducalis
Text: as §1, §2, §3, §4

Vespa simillima = system: Vespa simillima
Text: as §1, §2, §3, §4

| Molecule | Control time (Polistes jokahamae) [s] | Control time (Polistes rothneyi) [s] | also measured |
| --- | --- | --- | --- |
| COC(=O)Cc1ccccc1 [Example 28, Methyl phenyl acetate] | <1 |  |  |
| COC(=O)c1ccccc1 [Example 6, Methyl benzoate] |  | <1 |  |
| C=CC(C)(O)CCC=C(C)C (stereo not drawn) [compound 3, Linalool] |  |  | Control time (Vespa mandarinia): >180 s |
| CCCCOC(=O)C(C)O (stereo not drawn) [Example 27, n-butyl lactate] | <1 |  |  |
| CC(C)[C@@H]1CC[C@@H](C)CC1=O [Example 5, Menthone] |  |  | Control time (Vespa ducalis): <1 s |
| CC(C)=CCCC(C)=CC=O [Example 11, Citral] |  | <1 |  |
| CCCCCC(O)CC (stereo not drawn) [Example 13, 3-octanol] |  | <1 |  |
| CC(C)[C@@H]1CC[C@@H](C)CC1=O [Example 4, Menthone] | <1 |  |  |
| CC(C)O [compound 6, IPA, reference compound] | >180 |  |  |
| CC12CCC(CC1)C(C)(C)O2 [Example 20, Cineol] |  | <1 |  |
| O=C(Cc1ccccc1)OCc1ccccc1 [Example 14, Benzyl phenyl acetate] |  | <1 |  |
| CC(C)=CCCC(C)=CCCC(C)=CCO [Example 8, Farnesol] |  | <1 |  |
| CC(=O)OC1CC(C)CCC1C(C)C (stereo not drawn) [compound 2, Menthyl acetate] |  |  | Control time (Vespa simillima): >180 s |
| α-turpentine [Example 9] |  | <1 |  |
| CC(C)[C@]12CC(=O)[C@H](C)[C@H]1C2 [Example 12, Thujone] |  | <1 |  |
| CC1CCC(C(C)C)C(O)C1 (stereo not drawn) [Example 21, Menthol] | <1 |  |  |
| CCOC(=O)C(C)O (stereo not drawn) [Example 1, Ethyl lactate] | <1 |  |  |
| COC(=O)C(C)O (stereo not drawn) [Example 26, Methyl lactate] | <1 |  |  |
| CCOC(=O)c1ccccc1 [Example 7, Ethyl benzoate] |  | <1 |  |
| CC(C)=C1CC[C@@H](C)CC1=O [Example 10, Pulegone] |  | <1 |  |
| C=C(C)C1CC=C(C)C(=O)C1 (stereo not drawn) [Example 23, Carvone] | <1 |  |  |
